According to ChEMBL document CHEMBL4007494, “Structural Basis of Small-Molecule Aggregate Induced Inhibition of a Protein-Protein Interaction” (J Med Chem, 2017):
Active and inactive are the calls of the source. The calls are words filed in the database; no cut-off is given here.

Columns and labels:
Tumor necrosis factor [1] = target: T1, Tumor necrosis factor (Homo sapiens, UniProt P01375); conditions: 50 uM
Description: Binding affinity to human TNF-alpha soluble domain assessed as sedimentation velocity constant s20,w at 50 uM after 3 hrs by ultracentrifugation method

[2] = Critical aggregation concentration assessed as formation of aggregate after 30 mins by light scattering method
[3] = Critical aggregation concentration assessed as formation of aggregate after 30 mins in presence of triton X-100 by light scattering method
Tumor necrosis factor [4] = target: T1, Tumor necrosis factor; test: Binding affinity to human TNF-alpha soluble domain assessed as decrease in complex formation with human TNFR1 extracellular domain preincubated for 1 hr followed by receptor addition measure after 2 hrs by TR-FRET assay
Tumor necrosis factor [5] = target: T1, Tumor necrosis factor; test: Binding affinity to human TNF-alpha soluble domain assessed as decrease in complex formation with human TNFR2 extracellular domain preincubated for 1 hr followed by receptor addition measure after 2 hrs by TR-FRET assay

T1 sequence (P01375 whole entry): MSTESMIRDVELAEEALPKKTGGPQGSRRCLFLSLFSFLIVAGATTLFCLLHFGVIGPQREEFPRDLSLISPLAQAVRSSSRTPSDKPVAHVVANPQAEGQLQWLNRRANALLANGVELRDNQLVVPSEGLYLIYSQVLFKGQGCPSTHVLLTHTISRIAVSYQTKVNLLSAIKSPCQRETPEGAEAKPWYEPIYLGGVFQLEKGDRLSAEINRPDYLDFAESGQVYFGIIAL

Nc1nccc(N(Cc2ccccc2)c2ccccc2-c2cccc(-c3cnc(N4CCNCC4)nc3)c2)n1
S20,w (Tumor necrosis factor [1]): 3.09 | CAC [2]: 1 µM | CAC [3]: inactive | IC50 (Tumor necrosis factor [4]): 1200 nM | IC50 (Tumor necrosis factor [5]): 1100 nM

Clc1ccc(COC(Cn2ccnc2)c2ccc(Cl)cc2Cl)c(Cl)c1 (stereo not drawn)
CAC [2]: Dose-dependent effect | CAC [3]: inactive

Cc1cc2occ(CN(C)CCN(C)Cc3cn(-c4cccc(C(F)(F)F)c4)c4ccccc34)c(=O)c2cc1C
CAC [2]: 10 µM
